The source made the active and inactive calls.

Test [1] addresses ADP-ribosylation factor GTPase-activating protein 1 (Rattus norvegicus, UniProt Q62848). Description: Fluorescence polarization-based biochemical high throughput dose response screening assay to identify inhibitors of ADP-ribosylation factor GTPase activating protein 1 (ARFGAP1). The format is functional. (In general: Polarisation of emitted light reports the rotation of a fluorescent probe.)

Test [2] addresses DNA (cytosine-5)-methyltransferase 1 (Homo sapiens, UniProt P26358). Briefly: inhibition of DNA methylation by DNMT1 – biochemical, fluorescent molecular beacon, confirmation (AID 602386). The test is classed as functional.
Test [3] concerns the target T1, Histone-lysine N-methyltransferase NSD2 (Homo sapiens, UniProt O96028).
T1 sequence (O96028 whole entry): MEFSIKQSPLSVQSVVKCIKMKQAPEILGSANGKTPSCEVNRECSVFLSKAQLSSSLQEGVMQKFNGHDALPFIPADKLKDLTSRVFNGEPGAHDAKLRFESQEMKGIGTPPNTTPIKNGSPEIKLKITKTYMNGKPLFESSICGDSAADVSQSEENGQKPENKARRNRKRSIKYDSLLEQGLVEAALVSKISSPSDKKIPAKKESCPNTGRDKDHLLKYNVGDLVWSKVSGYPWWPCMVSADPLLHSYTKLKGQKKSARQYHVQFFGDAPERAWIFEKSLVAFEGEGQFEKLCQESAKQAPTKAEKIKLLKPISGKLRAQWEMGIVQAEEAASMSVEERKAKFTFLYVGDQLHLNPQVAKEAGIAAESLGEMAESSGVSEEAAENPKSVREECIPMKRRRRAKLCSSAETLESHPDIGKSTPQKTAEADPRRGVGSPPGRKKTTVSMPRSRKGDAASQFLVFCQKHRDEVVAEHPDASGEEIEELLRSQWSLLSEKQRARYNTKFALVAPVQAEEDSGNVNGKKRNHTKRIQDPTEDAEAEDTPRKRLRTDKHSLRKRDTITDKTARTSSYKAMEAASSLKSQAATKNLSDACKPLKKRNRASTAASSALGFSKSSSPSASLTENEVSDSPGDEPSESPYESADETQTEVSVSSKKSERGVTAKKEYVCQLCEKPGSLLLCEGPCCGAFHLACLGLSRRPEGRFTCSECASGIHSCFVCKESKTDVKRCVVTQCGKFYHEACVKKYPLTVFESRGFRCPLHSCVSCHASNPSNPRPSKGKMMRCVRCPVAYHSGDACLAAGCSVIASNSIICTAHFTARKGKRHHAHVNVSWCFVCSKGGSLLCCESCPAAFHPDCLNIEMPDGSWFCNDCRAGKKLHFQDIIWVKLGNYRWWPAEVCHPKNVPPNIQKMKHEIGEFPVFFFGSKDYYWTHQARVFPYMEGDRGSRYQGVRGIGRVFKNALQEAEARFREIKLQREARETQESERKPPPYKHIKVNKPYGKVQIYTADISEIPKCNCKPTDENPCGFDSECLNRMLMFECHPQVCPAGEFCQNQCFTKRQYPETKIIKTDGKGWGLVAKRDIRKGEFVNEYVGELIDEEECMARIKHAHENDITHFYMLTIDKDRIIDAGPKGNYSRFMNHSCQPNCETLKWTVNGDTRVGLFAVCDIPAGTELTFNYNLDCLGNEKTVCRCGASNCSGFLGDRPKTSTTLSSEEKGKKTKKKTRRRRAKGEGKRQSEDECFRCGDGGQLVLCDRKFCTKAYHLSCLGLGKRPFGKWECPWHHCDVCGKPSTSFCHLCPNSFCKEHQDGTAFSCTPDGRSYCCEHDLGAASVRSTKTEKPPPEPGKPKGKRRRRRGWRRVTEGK
The test is classed as biochemical.

Test [4] has as its target Adenosylmethionine-8-amino-7-oxononanoate aminotransferase (Mycobacterium tuberculosis, UniProt P9WQ81). Description: Mycobacterium tuberculosis BioA enzyme inhibitor Measured in Biochemical System Using Plate Reader - 2163-02_Inhibitor_Dose_CherryPick_Activity. The format is functional, Mycobacterium tuberculosis UT205.
Test [5] deals with T2, DNA repair and recombination protein RAD54-like (Homo sapiens, UniProt Q92698).
T2 sequence (Q92698 whole entry): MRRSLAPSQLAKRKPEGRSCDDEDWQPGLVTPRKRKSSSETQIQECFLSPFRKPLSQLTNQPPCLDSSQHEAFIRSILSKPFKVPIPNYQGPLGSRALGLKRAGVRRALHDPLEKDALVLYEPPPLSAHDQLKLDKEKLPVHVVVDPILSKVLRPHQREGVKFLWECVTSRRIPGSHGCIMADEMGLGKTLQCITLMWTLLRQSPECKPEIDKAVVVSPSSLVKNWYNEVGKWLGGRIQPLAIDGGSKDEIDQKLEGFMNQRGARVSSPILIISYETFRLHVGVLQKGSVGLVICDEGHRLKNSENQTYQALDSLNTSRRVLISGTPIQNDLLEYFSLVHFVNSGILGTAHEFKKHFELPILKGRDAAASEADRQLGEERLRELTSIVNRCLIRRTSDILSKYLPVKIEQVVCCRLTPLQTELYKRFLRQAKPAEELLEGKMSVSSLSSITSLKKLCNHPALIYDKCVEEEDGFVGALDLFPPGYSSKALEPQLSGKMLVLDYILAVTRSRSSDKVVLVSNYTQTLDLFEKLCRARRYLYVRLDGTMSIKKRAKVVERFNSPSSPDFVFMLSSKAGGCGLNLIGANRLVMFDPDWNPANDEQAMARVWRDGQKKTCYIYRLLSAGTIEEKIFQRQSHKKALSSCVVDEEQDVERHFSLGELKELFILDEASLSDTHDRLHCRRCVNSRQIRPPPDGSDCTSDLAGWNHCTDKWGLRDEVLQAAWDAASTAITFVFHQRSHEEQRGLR
Description: RAD54 Holliday junction migration blockers – biochemical, fluorescence, cherry-picked samples, dose series, confirmation (AID 651657). The test is classed as functional.

Test [6] deals with T3, Probable nicotinate-nucleotide adenylyltransferase (Staphylococcus aureus (strain N315), UniProt P65502). The format is functional, Staphylococcus aureus subsp. aureus N315.
Test [7] addresses T4, Endoribonuclease toxin MazF (Escherichia coli K-12, UniProt P0AE70).
T4 sequence (P0AE70 whole entry): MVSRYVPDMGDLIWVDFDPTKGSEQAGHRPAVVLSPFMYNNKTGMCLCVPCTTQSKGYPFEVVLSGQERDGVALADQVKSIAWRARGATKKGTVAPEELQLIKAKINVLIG
Briefly: substrate-only fluorescence increase artefacts – biochemical, single-stranded RNase substrate, counter-screen for MazEF activator project, dose response (AID 588502). The format is functional.

Test [8] concerns the target T3, Probable nicotinate-nucleotide adenylyltransferase. The test is classed as functional, Staphylococcus aureus subsp. aureus N315. Conditions: read-out: IC50_Mean.
Test [9] has as its target Melanocortin receptor 4 (Homo sapiens, UniProt P32245). The test is classed as functional, cell-based.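 Also: Cell-based assay with luminescence read-out, confirmatory dose-response testing for agonist activity of biased ligands at MC4R; human U2OS cells with tagged receptor and beta-arrestin; potency of agonists that increase receptor coupling to beta-arrestin.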
The target of test [10] is Heat shock protein HSP 90-alpha (Homo sapiens, UniProt P07900). The format is functional, organism-based.
In test [11] the target is T4, Endoribonuclease toxin MazF. Briefly: activation of MazEF endoribonuclease cleavage – biochemical, fluorescence, single-stranded RNA substrate, uHTS hits, dose response (AID 588481). The format is functional.
The nature of test [12]: Counterscreen for inhibitors of Trypanosoma brucei methionyl tRNA synthetase (MetRS): Luminescence-based cell-based high throughput dose response assay to identify compounds that are cytotoxic to Jurkat human T lymphocyte cells. The test is classed as functional.
For test [13], the system named is H9c2. Description: cells. The format is functional, cell-based. Conditions: Rattus norvegicus, H9c2, Myocardium.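 Also: confirmatory concentration-response retest of ultra-high-throughput screening hits for modulation of myocardial damage; cell death induced by hydrogen peroxide oxidative stress; compound pretreatment for 60 min then peroxide exposure for 2 h; potency is for protecting the cells against peroxide damage rather than for killing them.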
Test [14] addresses T5, Sentrin-specific protease 8 (Homo sapiens, UniProt Q96LD8).
T5 sequence (Q96LD8 whole entry): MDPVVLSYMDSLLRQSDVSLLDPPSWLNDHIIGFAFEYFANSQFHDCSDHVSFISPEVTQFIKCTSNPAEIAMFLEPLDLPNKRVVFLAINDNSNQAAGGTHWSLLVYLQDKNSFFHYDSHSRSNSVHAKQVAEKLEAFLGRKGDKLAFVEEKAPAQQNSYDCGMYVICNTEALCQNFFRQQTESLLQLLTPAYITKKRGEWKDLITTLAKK
The format is functional.

The target in test [15] is T5, Sentrin-specific protease 8. The format is functional. This is another data set of the same source.
Test [16] concerns the target Hepatocyte nuclear factor 4-alpha (Homo sapiens, UniProt P41235). The test is classed as functional, cell-based.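 Also: biochemical luminescence-based dose-response counterscreen measuring inhibition of HNF4 dimerization, run alongside a screen for blockers of ABHD5–perilipin-5 interaction; split luciferase complementation of HNF4 fusion proteins in cell lysate measuring dimerization.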
The target in test [17] is Genome polyprotein (dengue virus type 2, UniProt P29990). Description: flavivirus cap methylation enzyme inhibition – biochemical, confirmation dose response, primary screen (AID 588689). The test is classed as functional.
The target in test [18] is T6, Aminopeptidase N (Plasmodium falciparum FcB1/Columbia, UniProt O96935).
T6 sequence (O96935 whole entry): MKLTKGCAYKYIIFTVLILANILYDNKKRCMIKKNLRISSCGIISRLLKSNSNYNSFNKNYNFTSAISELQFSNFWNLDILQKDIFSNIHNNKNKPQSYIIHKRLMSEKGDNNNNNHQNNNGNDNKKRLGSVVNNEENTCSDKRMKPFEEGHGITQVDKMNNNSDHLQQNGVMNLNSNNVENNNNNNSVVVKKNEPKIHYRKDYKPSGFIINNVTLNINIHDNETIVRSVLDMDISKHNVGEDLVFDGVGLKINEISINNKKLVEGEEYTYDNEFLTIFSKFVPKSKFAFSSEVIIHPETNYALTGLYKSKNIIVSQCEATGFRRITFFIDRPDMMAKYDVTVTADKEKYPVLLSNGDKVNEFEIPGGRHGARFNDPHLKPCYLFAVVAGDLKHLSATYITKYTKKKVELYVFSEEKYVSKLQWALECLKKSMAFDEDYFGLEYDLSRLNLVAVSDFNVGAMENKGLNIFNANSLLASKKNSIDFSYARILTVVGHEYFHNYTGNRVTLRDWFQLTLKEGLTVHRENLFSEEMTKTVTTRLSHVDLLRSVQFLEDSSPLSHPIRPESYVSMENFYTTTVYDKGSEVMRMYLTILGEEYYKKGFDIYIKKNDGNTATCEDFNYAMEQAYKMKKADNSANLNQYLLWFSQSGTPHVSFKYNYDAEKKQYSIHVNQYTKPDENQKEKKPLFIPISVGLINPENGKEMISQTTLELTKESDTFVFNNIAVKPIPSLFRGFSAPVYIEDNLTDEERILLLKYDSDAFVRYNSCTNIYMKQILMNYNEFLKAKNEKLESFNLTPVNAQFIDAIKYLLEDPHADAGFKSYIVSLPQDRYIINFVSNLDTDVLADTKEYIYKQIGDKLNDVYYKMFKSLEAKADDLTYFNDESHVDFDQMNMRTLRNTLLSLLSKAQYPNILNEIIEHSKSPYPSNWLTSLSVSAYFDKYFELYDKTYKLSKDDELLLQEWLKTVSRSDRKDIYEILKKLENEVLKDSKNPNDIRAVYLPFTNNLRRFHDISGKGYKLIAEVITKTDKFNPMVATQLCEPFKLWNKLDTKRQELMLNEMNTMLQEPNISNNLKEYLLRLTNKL
Briefly: malaria alanyl aminopeptidase activity blockers – biochemical, fluorogenic H-Leu-NHMec substrate, 1536-well (AID 1445). Also noted: species or system Plasmodium falciparum 3D7, 3D7.
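For IC50 Mean in this document: confirmatory dose-response retesting of NadD inhibitor hits first found in an ultra-high-throughput screen.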

T3 sequence (P65502 whole entry): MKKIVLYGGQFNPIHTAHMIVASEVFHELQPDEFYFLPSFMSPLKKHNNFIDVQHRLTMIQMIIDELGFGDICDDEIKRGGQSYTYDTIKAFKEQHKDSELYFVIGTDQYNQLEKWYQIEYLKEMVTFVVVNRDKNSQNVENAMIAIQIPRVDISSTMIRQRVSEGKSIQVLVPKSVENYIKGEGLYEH
Sequence of Hepatocyte nuclear factor 4-alpha (P41235 whole entry, the tested form may be a part): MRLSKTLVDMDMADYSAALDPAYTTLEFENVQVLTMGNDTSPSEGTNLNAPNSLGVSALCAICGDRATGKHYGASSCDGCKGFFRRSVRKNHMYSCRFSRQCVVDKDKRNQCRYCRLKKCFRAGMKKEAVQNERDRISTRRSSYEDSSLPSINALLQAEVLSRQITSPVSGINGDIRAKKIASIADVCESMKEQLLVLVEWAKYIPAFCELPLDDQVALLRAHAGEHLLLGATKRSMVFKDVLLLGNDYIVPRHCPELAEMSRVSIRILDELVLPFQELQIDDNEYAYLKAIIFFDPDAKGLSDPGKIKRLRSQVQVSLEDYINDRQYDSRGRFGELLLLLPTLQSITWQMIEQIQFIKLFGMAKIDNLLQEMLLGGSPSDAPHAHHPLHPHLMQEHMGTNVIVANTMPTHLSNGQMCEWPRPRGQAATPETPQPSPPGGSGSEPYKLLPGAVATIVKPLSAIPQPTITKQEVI
Sequence of ADP-ribosylation factor GTPase-activating protein 1 (Q62848 whole entry): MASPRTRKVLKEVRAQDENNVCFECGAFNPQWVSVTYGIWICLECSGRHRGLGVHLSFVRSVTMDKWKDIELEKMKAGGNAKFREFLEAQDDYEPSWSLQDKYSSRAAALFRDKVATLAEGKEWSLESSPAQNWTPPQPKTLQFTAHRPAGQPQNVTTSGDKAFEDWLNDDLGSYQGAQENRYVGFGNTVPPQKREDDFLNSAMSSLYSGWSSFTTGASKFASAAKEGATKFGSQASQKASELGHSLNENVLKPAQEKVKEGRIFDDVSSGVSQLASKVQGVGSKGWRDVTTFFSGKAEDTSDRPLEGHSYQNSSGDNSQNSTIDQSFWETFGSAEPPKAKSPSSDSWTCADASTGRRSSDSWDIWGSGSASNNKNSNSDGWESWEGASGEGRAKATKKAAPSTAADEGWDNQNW
Sequence of Adenosylmethionine-8-amino-7-oxononanoate aminotransferase (P9WQ81 whole entry): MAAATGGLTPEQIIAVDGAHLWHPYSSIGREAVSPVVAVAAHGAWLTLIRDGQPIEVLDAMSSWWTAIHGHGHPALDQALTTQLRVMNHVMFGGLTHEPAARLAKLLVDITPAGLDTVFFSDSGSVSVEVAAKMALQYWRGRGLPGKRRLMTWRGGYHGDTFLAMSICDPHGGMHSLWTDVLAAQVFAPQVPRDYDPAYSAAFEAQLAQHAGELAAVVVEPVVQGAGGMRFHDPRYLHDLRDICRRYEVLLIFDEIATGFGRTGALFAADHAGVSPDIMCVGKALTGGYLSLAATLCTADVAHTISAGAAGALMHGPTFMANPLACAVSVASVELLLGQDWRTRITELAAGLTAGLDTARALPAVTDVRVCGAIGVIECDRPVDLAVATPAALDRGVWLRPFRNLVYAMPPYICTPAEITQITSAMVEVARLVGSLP
Sequence of Genome polyprotein (P29990 2492-3391 limits assumed): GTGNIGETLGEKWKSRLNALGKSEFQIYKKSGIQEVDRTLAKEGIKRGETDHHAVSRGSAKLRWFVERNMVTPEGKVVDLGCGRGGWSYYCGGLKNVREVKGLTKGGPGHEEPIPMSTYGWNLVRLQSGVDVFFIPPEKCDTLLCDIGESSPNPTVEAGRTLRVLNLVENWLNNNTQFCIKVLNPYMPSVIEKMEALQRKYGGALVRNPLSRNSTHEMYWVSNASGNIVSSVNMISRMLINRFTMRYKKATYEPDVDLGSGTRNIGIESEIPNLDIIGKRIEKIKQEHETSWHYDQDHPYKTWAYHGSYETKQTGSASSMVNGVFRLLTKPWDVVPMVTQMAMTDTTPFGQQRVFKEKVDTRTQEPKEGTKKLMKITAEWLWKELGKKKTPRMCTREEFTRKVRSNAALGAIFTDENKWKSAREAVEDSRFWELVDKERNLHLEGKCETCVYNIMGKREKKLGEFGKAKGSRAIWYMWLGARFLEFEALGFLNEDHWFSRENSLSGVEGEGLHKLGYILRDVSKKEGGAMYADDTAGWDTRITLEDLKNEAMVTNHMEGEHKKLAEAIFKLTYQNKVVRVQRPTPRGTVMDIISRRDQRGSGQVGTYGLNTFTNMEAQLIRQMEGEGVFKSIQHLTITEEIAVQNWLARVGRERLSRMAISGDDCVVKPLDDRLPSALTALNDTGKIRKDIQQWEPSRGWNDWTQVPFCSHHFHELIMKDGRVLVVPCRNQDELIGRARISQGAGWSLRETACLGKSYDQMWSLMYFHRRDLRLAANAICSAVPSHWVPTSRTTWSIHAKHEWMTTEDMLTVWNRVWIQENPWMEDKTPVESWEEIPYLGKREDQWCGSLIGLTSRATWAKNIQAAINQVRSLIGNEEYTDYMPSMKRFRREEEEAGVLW
Sequence of Melanocortin receptor 4 (P32245 whole entry): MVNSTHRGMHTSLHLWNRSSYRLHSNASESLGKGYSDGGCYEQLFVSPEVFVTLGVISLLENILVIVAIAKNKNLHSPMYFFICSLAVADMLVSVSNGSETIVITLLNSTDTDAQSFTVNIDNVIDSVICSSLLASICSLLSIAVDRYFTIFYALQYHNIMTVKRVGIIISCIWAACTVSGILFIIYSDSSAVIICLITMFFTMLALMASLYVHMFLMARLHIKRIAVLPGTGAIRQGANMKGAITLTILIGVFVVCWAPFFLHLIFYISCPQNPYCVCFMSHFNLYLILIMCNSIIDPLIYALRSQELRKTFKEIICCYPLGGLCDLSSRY
Sequence of DNA (cytosine-5)-methyltransferase 1 (P26358 whole entry): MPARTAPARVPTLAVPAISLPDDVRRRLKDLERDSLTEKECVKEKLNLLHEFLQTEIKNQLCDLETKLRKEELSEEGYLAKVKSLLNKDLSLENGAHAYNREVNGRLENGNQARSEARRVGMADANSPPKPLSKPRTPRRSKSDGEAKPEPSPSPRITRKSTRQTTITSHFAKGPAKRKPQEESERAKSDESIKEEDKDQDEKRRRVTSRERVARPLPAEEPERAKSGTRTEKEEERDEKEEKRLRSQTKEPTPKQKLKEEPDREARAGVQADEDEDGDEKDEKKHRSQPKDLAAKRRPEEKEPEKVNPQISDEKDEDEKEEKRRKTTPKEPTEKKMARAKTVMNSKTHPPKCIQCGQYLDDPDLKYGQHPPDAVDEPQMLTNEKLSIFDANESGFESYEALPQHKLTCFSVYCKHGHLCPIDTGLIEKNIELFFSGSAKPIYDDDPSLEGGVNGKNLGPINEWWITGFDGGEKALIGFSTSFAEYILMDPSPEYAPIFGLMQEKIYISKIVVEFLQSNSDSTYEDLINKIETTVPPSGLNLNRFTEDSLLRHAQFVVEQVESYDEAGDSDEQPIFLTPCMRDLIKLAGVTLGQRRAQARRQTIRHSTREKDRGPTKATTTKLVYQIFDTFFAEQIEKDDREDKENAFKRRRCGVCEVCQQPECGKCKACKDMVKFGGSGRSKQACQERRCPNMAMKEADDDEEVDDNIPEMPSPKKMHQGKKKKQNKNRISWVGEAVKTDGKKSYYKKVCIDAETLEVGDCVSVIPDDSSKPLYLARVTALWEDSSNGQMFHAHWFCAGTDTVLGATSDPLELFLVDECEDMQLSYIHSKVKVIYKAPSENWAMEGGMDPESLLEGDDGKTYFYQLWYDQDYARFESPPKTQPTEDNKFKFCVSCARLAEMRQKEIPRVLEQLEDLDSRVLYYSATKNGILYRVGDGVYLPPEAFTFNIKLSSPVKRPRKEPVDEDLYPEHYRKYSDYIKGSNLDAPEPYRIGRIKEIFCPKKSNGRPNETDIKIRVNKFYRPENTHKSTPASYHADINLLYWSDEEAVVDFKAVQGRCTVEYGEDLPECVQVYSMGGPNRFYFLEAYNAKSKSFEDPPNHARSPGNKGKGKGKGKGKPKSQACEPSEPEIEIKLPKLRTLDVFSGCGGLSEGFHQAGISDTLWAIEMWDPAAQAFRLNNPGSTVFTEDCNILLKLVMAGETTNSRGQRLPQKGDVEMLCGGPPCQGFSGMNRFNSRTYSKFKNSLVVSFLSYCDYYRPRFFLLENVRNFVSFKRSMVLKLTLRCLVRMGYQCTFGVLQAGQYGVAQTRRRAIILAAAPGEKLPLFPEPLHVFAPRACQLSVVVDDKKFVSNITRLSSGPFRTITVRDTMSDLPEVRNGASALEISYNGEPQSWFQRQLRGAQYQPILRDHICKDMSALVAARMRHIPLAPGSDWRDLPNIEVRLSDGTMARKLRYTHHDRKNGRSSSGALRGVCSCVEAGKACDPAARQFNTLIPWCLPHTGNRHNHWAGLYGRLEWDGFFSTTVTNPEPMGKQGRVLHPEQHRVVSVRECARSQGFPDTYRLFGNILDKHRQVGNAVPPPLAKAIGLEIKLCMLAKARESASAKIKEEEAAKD

As for `Cc1ccc(-c2nn(-c3ccccc3)cc2/C=C/C(=O)Nc2nccs2)cc1`, the IC50 in test [1] was 20.3 µM (inactive).

By AC50 is commonly meant the concentration at which the activity in the assay is half-maximal. Regarding `CC1=C/C(=C\c2ccc(Br)o2)C(=O)O1`, in test [2], the IC50 is 4.99 µM (active). Moreover, the AC50 in [3] is 4.71 µM (active).

On to `CN1CCN(c2[nH]cnc3c4cc(F)ccc4nc2-3)CC1`, for which the half-maximal activity concentration (AC50) was 2.8 µM (active) in test [4] and 28.8 µM (active) in test [5].

In general, EC50 refers to the concentration that produces a half-maximal response. Take `COc1ccc2oc(=O)c(-c3csc(Nc4cccc(O)c4)n3)cc2c1`: the IC50 in [6] was 19.2 µM (active); in test [8], 29 µM (active). Further, the figures for the EC50 in test [7], in test [9] and in test [11] were > 99 µM (inactive), > 89.2 µM (inactive) and > 99 µM (inactive), respectively. In addition, the AC50 in test [10] was 7.16 µM (active).

In the case of `Cc1cccc(NS(=O)(=O)c2ccc3[nH]c(-c4ccccc4)nc3c2)c1C`, in test [12], the IC50 was 25.1 µM (inactive).

`COC(=O)c1cccc(Nc2nc(-c3cccnc3)nc3ccccc23)c1`: the IC50 in [13] is 4.96 µM (active); in [1], 38.3 µM (inactive).

Regarding `O=C(c1ccccc1)[C@@H]1[C@@H](C(=O)c2ccc(F)cc2)[C@@]2(C(=O)Nc3ccccc32)[C@H]2c3ccccc3C=CN12`, the IC50 is 1.21 µM (active) in test [14] and 12.1 µM (active) in test [15].

`C=C1C(=O)O[C@H]2C[C@H]1[C@@H](OC(C)=O)C/C(C)=C/CC/C(C)=C\CC[C@]2(C)O`: the IC50 in test [16] was 3.21 µM (active).

For `O=C1CC(Nc2ccc([N+](=O)[O-])cc2)=NN1c1c(Cl)cc(Cl)cc1Cl`, the IC50 in test [17] was 48.4 µM (active); in test [14], 16 µM (active); in test [15], 12.3 µM (active).

Consider `Cc1cc(C(=O)NC2CC(C)(C)Cc3c2cnn3-c2cccc(F)c2)nn1C` (stereo unspecified), for which the AC50 in [4] was 2.72 µM (active).

For the compound `Cc1cccc(C)c1NC(=O)C(c1ccc(C#N)cc1)n1c(=O)c(-c2ccco2)nc2ccccc21` (stereo unspecified), in [16], the IC50 is 1.86 µM (active).

Regarding `CCCOc1ccc(C(=O)N/N=C/c2ccc(-c3ccc(S(=O)(=O)Nc4ncccn4)cc3)o2)cc1`, the IC50 in test [18] was 26.1 µM (active); in [17], > 100 µM (active); in test [6], 6.45 µM (active); in test [8], 31 µM (active).

Source of the values: ChEMBL document CHEMBL1201862, “PubChem BioAssay data set” (2004).
